{"source": "patent US12497614B2", "about": "“Compositions and methods for editing beta-globin for treatment of hemaglobinopathies” (Vertex Pharmaceuticals Incorporated, priority 2020, dated 2025)", "molecules": {"B1": {"name": "T107 gRNA: intron-targeting gRNA, spacer SEQ ID NO: 3, sgRNA SEQ ID NO: 4 (nucleic acid)", "guide": "mU*mC*mC*rArCrArUrGrCrCrCrArGrUrUrUrCrUrArUrGrUrUrUrUrArGrArGrCrUrArGrArArArUrArGrCrArArGrUrUrArArArArUrArArGrGrCrUrArGrUrCrCrGrUrUrArUrCrArArCrUrUrGrArArArArArGrUrGrGrCrArCrCrGrArGrUrCrGrGrUrGrCmU*mU*mU*rU"}, "B2": {"name": "R02 gRNA: exon-targeting gRNA for exon 1 of HBB, spacer SEQ ID NO: 14, sgRNA SEQ ID NO: 15 (nucleic acid)", "guide": "mC*mU*mU*rGrCrCrCrCrArCrArGrGrGrCrArGrUrArArGrUrUrUrUrArGrArGrCrUrArGrArArArUrArGrCrArArGrUrUrArArArArUrArArGrGrCrUrArGrUrCrCrGrUrUrArUrCrArArCrUrUrGrArArArArArGrUrGrGrCrArCrCrGrArGrUrCrGrGrUrGrCmU*mU*mU*rU"}, "B3": {"name": "T223 gRNA: intron-targeting gRNA, spacer SEQ ID NO: 51, sgRNA SEQ ID NO: 52 (nucleic acid)", "guide": "mU*mA*mA*rGrGrArGrArCrCrArArUrArGrArArArCrUrGrUrUrUrUrArGrArGrCrUrArGrArArArUrArGrCrArArGrUrUrArArArArUrArArGrGrCrUrArGrUrCrCrGrUrUrArUrCrArArCrUrUrGrArArArArArGrUrGrGrCrArCrCrGrArGrUrCrGrGrUrGrCmU*mU*mU*rU"}}, "key": {"[1]": {"system": "HBB gene locus in CD34+ HSPCs", "assay": "HDR efficiency with DNA-PK inhibitors for editing the HBB gene in CD34+ HSPCs; NGS (Example 4)", "format": "cell-based, human", "settings": "for % HDR / % INDELs: 48 hours", "experimental": "The cells were transduced with AAV donor template for 1 hour at 37° C. prior to electroporation. AAV-encoded homology donor template referred to as “AAV.310”, which is identified by sequence in Table 8. The AAV.310 donor template encodes a SCD mutation, specifically valine at the 6th codon downstream the HBB start codon (E6V). The cells were treated with AAV at a dose of 10,000 MOI.\nEdited cells were evaluated for viability using trypan blue, and for incorporation of gene-edits at 2 days post-electroporation. The efficiency of HDR repair for introducing an E6V mutation in the HBB gene was quantified by NGS assay as described in Example 1, and the frequency of INDELs induced at the T107 cut site was also evaluated by NGS analysis.\nThe INDELs species identified in edited cells were further evaluated to determine frequency of repair by NHEJ or MMEJ repair pathways. An INDEL of ±1 nt was considered due to NHEJ repair; a deletion of −9 nt was considered due to MMEJ repair based on the microhomology present on either side of the T107 cut site. Based on percentage of total reads corresponding to these INDEL species, the ratio of gene edits due to NHEJ and MMEJ repair was evaluated. […] Thus, reduced frequency of INDELs with treatment of compound 296 or i53 is largely due to suppression of the NHEJ repair pathway."}, "CD34+ HSPCs [2]": {"system": "CD34+ HSPCs", "assay": "Cell growth and viability (trypan blue) of edited CD34+ HSPCs during differentiation (Example 5)", "settings": "day 0 to day 18 post-editing; inhibitor 1 or 3 μM, i53 1 μg mRNA; data not shown", "experimental": "Briefly, frozen CD34+ HSPCs isolated from Plerixafor mobilized peripheral blood, obtained from healthy human donors were thawed. The cells were seeded in CD34 cell media at a cell density of 2×10^5 cells/mL. Cells were cultured at 37° C. under normoxic conditions (i.e., oxygen 20%). Gene-editing was performed following two days of in vitro culture. For editing, 5×10^5 CD34+ HSPCs were electroporated with RNP containing 200 μg/ml Cas9 and 200 μg/ml T107 sgRNA. […] The cells were transduced with AAV.310, 1 hour prior to electroporation, at a dose of 10,000 MOI. The cells were plated in CD34 cell medium containing Compound 296 or Compound 984 immediately following the electroporation, at a concentration of 1 μM or 3 μM for 48 hours. […] Post electroporation cells were resuspended in CD34 cell medium at a density of 2-5×10^5 cells/ml and incubated at 37° C. for 48 hours.\nFollowing editing, cells were differentiated to erythrocytes. Briefly, cells were plated in fresh CD34 media at a density of 2×10^5 cells/mL, and re-plated at similar density in fresh CD34 media on days 3 and 5 post-editing. On day 7 and 10 post-editing, the cells were incubated in Phase II media at a density of 2.5×10^5 and 1×10^6 cells/mL respectively. On day 12 post-editing, the cells were incubated in Phase III media at a density of 1×10^6 cells/mL. On day 14 cells were plated at a density of 2×10^6 cells/ml in Phase III media and maintained till day 18 at 37° C. Cell growth was measured at various time points between day 0 and day 18 post-editing, and the percentage of viable cells was measured by staining with tryphan blue."}, "[3]": {"system": "HBB gene locus and mRNA transcribed from HBB in CD34+ HSPCs", "assay": "Editing efficiency in genomic DNA and in HBB mRNA (Example 5)", "format": "cell-based, human", "settings": "genomic DNA, 48 hours post electroporation; 1 μM or 3 μM", "experimental": "At 48 hours post electroporation genomic DNA was isolated from the edited cells and HDR to introduce the sickle mutation and INDEL frequencies were evaluated using next gene sequencing and computational analysis. On day 10 of differentiation, incorporation of the SCD mutation and frequency of INDELs present in mRNA transcribed from the HBB gene locus of edited cells was determined using RNA amplicon sequencing."}, "CD34+ HSPCs [4]": {"system": "CD34+ HSPCs", "assay": "Globin and hemoglobin analysis by HPLC on day 18 of differentiation (Example 5)", "format": "cell-based, human", "settings": "T107 RNP+AAV.310 alone or combined with the inhibitor", "experimental": "(§1) Following editing, cells were differentiated to erythrocytes.\nAdditionally, on day 18 post-editing, expression of globin monomers was assessed in differentiated cells by HPLC as described in Example 3. […] Accordingly, the editing was sufficient to both introduce the SCD mutation in HBB and result in expression of sickle globin.\nFurthermore, production of hemoglobin tetramers was also evaluated by HPLC. The analysis included quantification of HbS tetramer containing sickle-globin (α2β(E6V)2), HbF tetramer (α2γ2), HbA (α2β2), and HbA2 (α2δ2) produced by edited cells. […] Thus, the editing was also sufficient to alter hemoglobin output following in vitro differentiation."}, "CD34+ HSPCs [5]": {"system": "CD34+ HSPCs", "assay": "Erythrocyte functionality: enucleation and cell-surface markers by flow cytometry (Example 5)", "format": "cell-based, human", "settings": "T107 RNP+AAV.310 alone or combined with the inhibitor", "experimental": "as §1\nThe ability of edited cells to differentiate to functional erythrocytes was assessed by determining expression of erythrocyte-associated cell surface markers and enucleation using flow cytometry on day 12 and 18 post editing. Briefly, 4×10^5 cells were obtained, and half were stained for erythrocyte cell-surface markers and half were used for detection of enucleation. For staining cell-surface markers, the cells were incubated in PBS containing 1% human serum albumin (PBS-A) and an antibody cocktail of anti-CD233(BRIC6-Band3)-FITC, anti-CD71-PE, anti-CD235a(GlyA)-PE/Cy7, and anti-CD49d (α4)-VioBlue. For detection of enucleation, 2 drops of NucRed nuclear staining reagent was added to 1 mL PBS-A, and 100 μL was added to plated cells. Following incubation, both cell samples were labeled with Sytox Blue solution (1:1000 dilution in PBS-A) for live/dead analysis. Samples were then assessed by flow cytometry"}, "HBB gene in CD34+ HSPCs": {"system": "HBB gene in CD34+ HSPCs", "assay": "Comparison of guides targeting intron 1 of HBB with AAV donor templates (Example 8)", "format": "cell-based, human", "settings": "with each of AAV.309, AAV.310, AAV.311; day 2 post-editing", "experimental": "Healthy donor CD34+ HSPCs derived from plerixafor-mobilized peripheral blood were cultured as described in Example 1 for two days prior to editing. Editing was performed using 1×10^6 CD34+ HSPCs per treatment group. The cells were electroporated with RNP containing the following 20 μg SpCas9 and 20 μg T107 sgRNA, 20 μg T223 sgRNA, or 20 μg R02 sgRNA. […] The cells were transduced with AAV6 donor templates encoding a SCD mutation (AAV.309; AAV.310; AAV.311) by incubating the cells with AAV at a dose of 10,000 MOI for one hour prior to electroporation. Control cells were transduced with AAV only and electroporated in the absence of RNP.\nOn day 2 post-editing, the efficiency of HDR repair for inducing a SCD mutation in the HBB gene was quantified by NGS assay as described in Example 1."}, "[6]": {"system": "genomic sites undergoing off-target cleavage", "assay": "GUIDE-Seq screen of candidate off-target sites", "format": "cell-based, human", "from_the_text": "The second approach was to screen candidate off-target sites using GUIDE-Seq (see, e.g., Tsai et al (2015) NAT. BIOTECHNOL. 33:187). Based on this approach, the following number of genomic sites were identified as undergoing off-target cleavage per each gRNA: • (i) 36 GUIDE-Seq off-target sites for R02 gRNA; • (ii) 12 GUIDE-Seq off-target sites for […]; and • (iii) 43 GUIDE-Seq off-target sites for T223 gRNA."}, "[7]": {"settings": "T107 RNP + AAV.310 + 0.012 μM compound"}, "[8]": {"settings": "T107 RNP + AAV.310 + 0.037 μM compound"}, "[9]": {"settings": "T107 RNP + AAV.310 + 0.04 μM compound"}, "[10]": {"settings": "T107 RNP + AAV.310 + 3.3 μM compound"}, "[11]": {"settings": "T107 RNP + AAV.310 + 10 μM compound"}}, "note": "Strand notation (5' to 3'): a small letter for the sugar, then the base; units joined by * are phosphorothioate-linked, units joined directly phosphodiester-linked; [ ] holds rarer units or linkages, { } end groups; capitals alone tell only the bases. m = 2'-O-methyl; r = 2'-OH (RNA)", "data": [{"molecule": "CNC(=O)c1ccnc2c([C@H](C)CNc3cc(-c4cnc(C)nc4)ncn3)cccc12", "note": "[Compound 296]", "values": [{"measurement": "% HDR", "setting": "[1]; [7]", "value": 40, "unit": "%"}, {"measurement": "% INDELs", "setting": "[1]; [7]", "value": 45, "unit": "%"}, {"measurement": "% HDR", "setting": "[1]; [8]", "value": 39, "unit": "%"}, {"measurement": "% INDELs", "setting": "[1]; [8]", "value": 46, "unit": "%"}, {"measurement": "% HDR", "setting": "[1]; [9]", "value": 40, "unit": "%"}, {"measurement": "% INDELs", "setting": "[1]; [9]", "value": 42, "unit": "%"}, {"measurement": "% HDR", "setting": "[1]; [10]", "value": 55, "unit": "%"}, {"measurement": "% INDELs", "setting": "[1]; [10]", "value": 27, "unit": "%"}, {"measurement": "% HDR", "setting": "[1]; [11]", "value": 57, "unit": "%"}, {"measurement": "% INDELs", "setting": "[1]; [11]", "value": 25, "unit": "%"}, {"measurement": "reduction of the frequency of INDELs at the T107 cut site compared to control cells", "setting": "[1]; T107 RNP+AAV.310 with DNA-PK inhibitor", "value": "approximately 1.6 fold"}, {"measurement": "INDEL species due to MMEJ repair (deletion of −9 nt)", "setting": "[1]; T107 RNP+AAV.310, Compound 296 at 10 μM, i53 at 1 μg mRNA", "value": "no substantial reduction"}, {"measurement": "decrease in INDELs due to NHEJ repair (INDEL of ±1 nt)", "setting": "[1]; T107 RNP+AAV.310, Compound 296 at 10 μM, i53 at 1 μg mRNA, vs DMSO", "value": "≤ 3", "unit": "fold"}, {"measurement": "cell growth over time or percent viability vs T107 RNP+AAV.310 edited cells", "setting": "CD34+ HSPCs [2]", "value": "No difference"}, {"measurement": "frequency of INDELs at the T107 cut site compared to cells edited with T107 RNP+AAV.310 only", "setting": "[3]", "value": "decreased"}, {"measurement": "level of HDR repair compared to cells edited with T107 RNP+AAV.310 only", "setting": "[3]", "value": "increased"}, {"measurement": "HbA production compared to control cells", "setting": "CD34+ HSPCs [4]", "value": "decreased"}, {"measurement": "HbS production compared to control cells", "setting": "CD34+ HSPCs [4]", "value": "increased"}, {"measurement": "expression of sickle-globin compared to control cells", "setting": "CD34+ HSPCs [4]", "value": "increased"}, {"measurement": "levels of enucleation vs control cells", "setting": "CD34+ HSPCs [5]", "value": "comparable"}]}, {"molecule": "B1", "values": [{"measurement": "levels of HDR for introducing the SCD mutation", "setting": "HBB gene in CD34+ HSPCs", "value": "similar"}, {"measurement": "GUIDE-Seq off-target sites (number)", "setting": "[6]", "value": 12}]}, {"molecule": "B2", "values": [{"measurement": "GUIDE-Seq off-target sites (number)", "setting": "[6]", "value": 36}]}, {"molecule": "B3", "values": [{"measurement": "levels of HDR for introducing the SCD mutation", "setting": "HBB gene in CD34+ HSPCs", "value": "similar"}, {"measurement": "GUIDE-Seq off-target sites (number)", "setting": "[6]", "value": 43}]}]}
